Laboratory results as given in ChEMBL document CHEMBL1201861, “Genomics of Drug Sensitity in Cancer screening data, Wellcome Trust Sanger Institute”.
pIC50: −log10 of the molar value.

Key:
Assay type in all cases: functional, cell-based
MHH-CALL-2 = test: cells; conditions: Homo sapiens
Description: SANGER: Inhibition of human MHH-CALL-2 cell growth in a cell viability assay.

SNU-C1 = test: cells; conditions: Homo sapiens
Description: SANGER: Inhibition of human SNU-C1 cell growth in a cell viability assay.

K052 = test: cells; conditions: Homo sapiens
Description: SANGER: Inhibition of human K052 cell growth in a cell viability assay.

ECC12 = test: cells; conditions: Homo sapiens
Description: SANGER: Inhibition of human ECC12 cell growth in a cell viability assay.

THP-1 = test: cells; conditions: Homo sapiens
Description: SANGER: Inhibition of human THP-1 cell growth in a cell viability assay.

NCI-H345 = test: cells; conditions: Homo sapiens
Description: SANGER: Inhibition of human NCI-H345 cell growth in a cell viability assay.

Raji = test: cells; conditions: Homo sapiens
Description: SANGER: Inhibition of human Raji cell growth in a cell viability assay.

LC-1F = test: cells; conditions: Homo sapiens
Description: SANGER: Inhibition of human LC-1F cell growth in a cell viability assay.

PF-382 = test: cells; conditions: Homo sapiens
Description: SANGER: Inhibition of human PF-382 cell growth in a cell viability assay.

RPMI-6666 = test: cells; conditions: Homo sapiens
Description: SANGER: Inhibition of human RPMI-6666 cell growth in a cell viability assay.

ECC4 = test: cells; conditions: Homo sapiens
Description: SANGER: Inhibition of human ECC4 cell growth in a cell viability assay.

UACC-812 = test: cells; conditions: Homo sapiens
Description: SANGER: Inhibition of human UACC-812 cell growth in a cell viability assay.

GDM-1 = test: cells; conditions: Homo sapiens
Description: SANGER: Inhibition of human GDM-1 cell growth in a cell viability assay.

BL-70 = test: SANGER: Inhibition of human BL-70 cell growth in a cell viability assay.
BC1 cell line = test: SANGER: Inhibition of human BC-1 cell growth in a cell viability assay.
WSU-NHL = test: cells; conditions: Homo sapiens
Description: SANGER: Inhibition of human WSU-NHL cell growth in a cell viability assay.

NB1 = test: cells; conditions: Homo sapiens
Description: SANGER: Inhibition of human NB1 cell growth in a cell viability assay.

TALL-1 = test: cells; conditions: Homo sapiens
Description: SANGER: Inhibition of human TALL-1 cell growth in a cell viability assay.

NCI-H1522 = test: cells; conditions: Homo sapiens
Description: SANGER: Inhibition of human NCI-H1522 cell growth in a cell viability assay.

IMR-5 = test: cells; conditions: Homo sapiens
Description: SANGER: Inhibition of human IMR-5 cell growth in a cell viability assay.

RL = test: cells; conditions: Homo sapiens
Description: SANGER: Inhibition of human RL cell growth in a cell viability assay.

REH = test: cells; conditions: Homo sapiens
Description: SANGER: Inhibition of human REH cell growth in a cell viability assay.

JIYOYE = test: cells; conditions: Homo sapiens
Description: SANGER: Inhibition of human JiyoyeP-2003 cell growth in a cell viability assay.

RPMI 8402 = test: SANGER: Inhibition of human RPMI-8402 cell growth in a cell viability assay.
MOLT-13 = test: cells; conditions: Homo sapiens
Description: SANGER: Inhibition of human MOLT-13 cell growth in a cell viability assay.

NCI-H1882 = test: cells; conditions: Homo sapiens
Description: SANGER: Inhibition of human NCI-H1882 cell growth in a cell viability assay.

CA46 = test: cells; conditions: Homo sapiens
Description: SANGER: Inhibition of human CA46 cell growth in a cell viability assay.

BL-41 = test: cells; conditions: Homo sapiens
Description: SANGER: Inhibition of human BL-41 cell growth in a cell viability assay.

EB2 = test: cells; conditions: Homo sapiens
Description: SANGER: Inhibition of human EB2 cell growth in a cell viability assay.

NCI-H1436 = test: cells; conditions: Homo sapiens
Description: SANGER: Inhibition of human NCI-H1436 cell growth in a cell viability assay.

OPM-2 = test: cells; conditions: Homo sapiens
Description: SANGER: Inhibition of human OPM-2 cell growth in a cell viability assay.

KARPAS-422 = test: cells; conditions: Homo sapiens
Description: SANGER: Inhibition of human KARPAS-422 cell growth in a cell viability assay.

CMK = test: cells; conditions: Homo sapiens
Description: SANGER: Inhibition of human CMK cell growth in a cell viability assay.

YT = test: cells; conditions: Homo sapiens
Description: SANGER: Inhibition of human YT cell growth in a cell viability assay.

LP-1 = test: cells; conditions: Homo sapiens
Description: SANGER: Inhibition of human LP-1 cell growth in a cell viability assay.

L-540 = test: cells; conditions: Homo sapiens
Description: SANGER: Inhibition of human L-540 cell growth in a cell viability assay.

NCI-H889 = test: cells; conditions: Homo sapiens
Description: SANGER: Inhibition of human NCI-H889 cell growth in a cell viability assay.

NCI-H2196 = test: cells; conditions: Homo sapiens
Description: SANGER: Inhibition of human NCI-H2196 cell growth in a cell viability assay.

Daudi = test: cells; conditions: Homo sapiens
Description: SANGER: Inhibition of human Daudi cell growth in a cell viability assay.

NCI-H2227 = test: cells; conditions: Homo sapiens
Description: SANGER: Inhibition of human NCI-H2227 cell growth in a cell viability assay.

LC4-1 = test: cells; conditions: Homo sapiens
Description: SANGER: Inhibition of human LC4-1 cell growth in a cell viability assay.

HCC1599 = test: cells; conditions: Homo sapiens
Description: SANGER: Inhibition of human HCC1599 cell growth in a cell viability assay.

SUP-T1 = test: cells; conditions: Homo sapiens
Description: SANGER: Inhibition of human SUP-T1 cell growth in a cell viability assay.

## CCc1nc(N)nc(N)c1-c1ccc(Cl)cc1 [PYRIMETHAMINE]
MHH-CALL-2
  pIC50: < 4.70
SNU-C1
  pIC50: < 4.70
K052
  pIC50: < 4.70
ECC12
  pIC50: 5.59
THP-1
  pIC50: < 4.70
NCI-H345
  pIC50: < 4.70
Raji
  pIC50: < 4.70
LC-1F
  pIC50: < 4.70
PF-382
  pIC50: 4.84
RPMI-6666
  pIC50: 4.84
ECC4
  pIC50: < 4.70
UACC-812
  pIC50: < 4.70
GDM-1
  pIC50: < 4.70
BL-70
  pIC50: 4.83
BC1 cell line
  pIC50: 5.29
WSU-NHL
  pIC50: < 4.70
NB1
  pIC50: < 4.70
TALL-1
  pIC50: < 4.70
NCI-H1522
  pIC50: < 4.70
IMR-5
  pIC50: < 4.70
RL
  pIC50: < 4.70
REH
  pIC50: < 4.70
JIYOYE
  pIC50: 4.96
RPMI 8402
  pIC50: 5.09
MOLT-13
  pIC50: < 4.70
NCI-H1882
  pIC50: < 4.70
CA46
  pIC50: < 4.70
BL-41
  pIC50: < 4.70
EB2
  pIC50: < 4.70
NCI-H1436
  pIC50: < 4.70
OPM-2
  pIC50: < 4.70
KARPAS-422
  pIC50: 4.74
CMK
  pIC50: 5.61
YT
  pIC50: < 4.70
LP-1
  pIC50: < 4.70
L-540
  pIC50: 4.98
NCI-H889
  pIC50: < 4.70
NCI-H2196
  pIC50: < 4.70
Daudi
  pIC50: < 4.70
NCI-H2227
  pIC50: < 4.70
LC4-1
  pIC50: < 4.70
HCC1599
  pIC50: < 4.70
SUP-T1
  pIC50: < 4.70

## O=C(/C=C/c1ccccc1)NC(NC(=S)Nc1cccc2cccnc12)C(Cl)(Cl)Cl (centres undefined) [SALUBRINAL]
MHH-CALL-2
  pIC50: < 4.80
SNU-C1
  pIC50: < 4.80
K052
  pIC50: < 4.80
ECC12
  pIC50: < 4.80
THP-1
  pIC50: < 4.80
NCI-H345
  pIC50: < 4.80
Raji
  pIC50: < 4.80
LC-1F
  pIC50: < 4.80
PF-382
  pIC50: < 4.80
RPMI-6666
  pIC50: < 4.80
ECC4
  pIC50: < 4.80
UACC-812
  pIC50: < 4.80
GDM-1
  pIC50: < 4.80
BL-70
  pIC50: < 4.80
BC1 cell line
  pIC50: 4.82
WSU-NHL
  pIC50: < 4.80
NB1
  pIC50: < 4.80
TALL-1
  pIC50: < 4.80
NCI-H1522
  pIC50: < 4.80
IMR-5
  pIC50: 4.86
RL
  pIC50: < 4.80
REH
  pIC50: < 4.80
JIYOYE
  pIC50: < 4.80
RPMI 8402
  pIC50: < 4.80
MOLT-13
  pIC50: < 4.80
NCI-H1882
  pIC50: < 4.80
CA46
  pIC50: < 4.80
BL-41
  pIC50: 5.01
EB2
  pIC50: < 4.80
NCI-H1436
  pIC50: < 4.80
OPM-2
  pIC50: < 4.80
KARPAS-422
  pIC50: < 4.80
CMK
  pIC50: 4.86
YT
  pIC50: < 4.80
LP-1
  pIC50: 5.47
L-540
  pIC50: 4.80
NCI-H889
  pIC50: < 4.80
NCI-H2196
  pIC50: < 4.80
Daudi
  pIC50: 5.20
NCI-H2227
  pIC50: < 4.80
LC4-1
  pIC50: < 4.80
HCC1599
  pIC50: 4.92
SUP-T1
  pIC50: < 4.80

## CNC(=O)c1cc(Oc2ccc(NC(=O)Nc3ccc(Cl)c(C(F)(F)F)c3)cc2)ccn1 [SORAFENIB]
MHH-CALL-2
  pIC50: < 5.40
SNU-C1
  pIC50: < 5.40
K052
  pIC50: 5.56
ECC12
  pIC50: < 5.40
THP-1
  pIC50: < 5.40
NCI-H345
  pIC50: < 5.40
Raji
  pIC50: < 5.40
LC-1F
  pIC50: < 5.40
PF-382
  pIC50: < 5.40
RPMI-6666
  pIC50: < 5.40
ECC4
  pIC50: < 5.40
UACC-812
  pIC50: < 5.40
GDM-1
  pIC50: 6.04
BL-70
  pIC50: < 5.40
BC1 cell line
  pIC50: 5.43
WSU-NHL
  pIC50: < 5.40
NB1
  pIC50: < 5.40
TALL-1
  pIC50: < 5.40
NCI-H1522
  pIC50: < 5.40
IMR-5
  pIC50: < 5.40
RL
  pIC50: < 5.40
REH
  pIC50: < 5.40
JIYOYE
  pIC50: < 5.40
RPMI 8402
  pIC50: < 5.40
MOLT-13
  pIC50: < 5.40
NCI-H1882
  pIC50: < 5.40
CA46
  pIC50: < 5.40
BL-41
  pIC50: < 5.40
EB2
  pIC50: < 5.40
NCI-H1436
  pIC50: 5.91
OPM-2
  pIC50: < 5.40
KARPAS-422
  pIC50: < 5.40
CMK
  pIC50: < 5.40
YT
  pIC50: < 5.40
LP-1
  pIC50: < 5.40
L-540
  pIC50: 5.56
NCI-H889
  pIC50: < 5.40
NCI-H2196
  pIC50: < 5.40
Daudi
  pIC50: < 5.40
NCI-H2227
  pIC50: < 5.40
LC4-1
  pIC50: < 5.40
HCC1599
  pIC50: < 5.40
SUP-T1
  pIC50: < 5.40
